Structures are written as SMILES.

In experiment [1] the target is T1, human 5-HT7B (h5-HT7b) receptors (Homo sapiens, UniProt P34969).
T1 construct: expressed in transfected cells
Briefly: Competition radioligand binding, h5-HT7b. The note with it: [3H]5-CT; membranes of HEK 293 cells; read-out: Ki 5-HT7. The source says:
The compounds of the invention interact with 5-HT receptors and show selectivity for 5-HT receptors. The 5-HT receptor binding properties of the compounds are identified by competitive radioligand binding assays wherein membranes prepared from transfected cells expressing the 5-HT receptor subtype of interest. “Binding constants” refers herein to Ki values measured by inhibition of the binding of radiolabelled ligands that are selective for the 5-HT receptor type being studied. For 5-HT7 receptors, Ki values are determined by measuring the inhibition of 5-carboxamidotryptamine (5-CT) binding, wherein 5-HT7 receptors were incubated with the radiolabelled high affinity ligand, 5-carboxamidotryptamine ([^3H]5-CT), in the presence and absence of the compounds of the invention, at varying concentrations. The compounds of the invention have high binding affinity for serotonin receptors as measured by dissociation constant Ki. […] “Selectivity” for receptor type, in the context of this invention, refers to the ratio of binding constants for the two receptor types being compared. […] The compounds of the present invention preferably show selectivity for 5-HT7 receptors over other serotonin receptor subtypes of greater than about 100. The compounds of the present invention also preferably show selectivity for 5-HT7 receptors over other receptor types, such as dopamine D2, of greater than about 100.
Cells and Membrane Preparation: HEK 293 cells stably expressing human 5-HT7B (h5-HT7b) receptors were grown in Dulbecco's Modified Eagle's Medium (DMEM; Gibco) without sodium pyruvate and containing 4.5 g/L glucose, L-glutamine/penicillin-streptomycin (Gemini), 10% fetal bovine serum and 250 mg/l of the antibiotic, G418 (Geneticin) as previously described (Jasper, J. R., Kosaka, A., To, Z. P., Chang, D. J. and Eglen, R. M. (1997) Cloning, expression and pharmacology of a truncated splice variant of the human 5-ht7 receptor (h5-ht7b). Br. J. Pharmacol. 122(1):126-132.). Cell pellets were homogenized in approximately 50 mL of homogenization buffer (buffer A) containing: 50 mM Tris (pH 7.4), 2 mM EGTA, 0.32 M sucrose, 10 μM PMSF, 1 μg/mL leupeptin, 5 μg/mL Pepstatin A, and 5 μg/mL aprotinin using an UltraTurax homogenizer (Tekmar Company, Cincinnati, Ohio) at 80% maximum setting three times for 10 sec. Cell pellets were centrifuged at 4° C. at 1,500×g for 10 min in a Beckman GS-6R centrifuge. Pellets were resuspended in buffer A, homogenized and centrifuged as described above. Pooled supernatants were transferred to centrifuge bottles and centrifuged at 4° C. at 20,000×g for 30 min in a Beckman J2-HS centrifuge. Cell pellets were resuspended in buffer A and were centrifuged at 4° C. at 20,000×g for 30 min. Cell pellets were resuspended in buffer A and stored at −70° C. in aliquots of 2.5 mg/mL total membrane protein. Total membrane protein was assessed utilizing a BCA kit (Pierce; Rockford, Ill.). Membranes containing human 5-HT1a or 5HT2a receptors expressed in CHO K1 cells were prepared as described above.
Radioligand Binding Assays: For 5-HT7 saturation binding experiments, HEK-293 cell membranes expressing h5-HT7 receptors (5-10 μg membrane protein/well) were incubated in duplicate with [^3H]5-CT (approximately 0.2 nM) in binding assay buffer containing: 50 mM HEPES (pH 7.4), 0.5 mM EDTA, 10 mM MgCl2, 10 μM pargyline to inhibit monoamine oxidase activity, and 0.1% sodium ascorbate, in a final volume of 200 μL in 96-well polypropylene plates for 2 hours at 37° C. Nonspecific binding was determined by incubating membranes with 1 μM 5-HT. All radioligand binding assays were stopped by rapid filtration onto 96-well GF/C filter plates (Packard) soaked in 0.1% polyethylenimine. Filters were washed three times with ice-cold phosphate-buffered saline (PBS) wash buffer containing 50 mM NaPO4 (pH 7.4), 0.9% NaCl, 2 mM MgCl2 and 0.02% NaN3. The filters were then counted using liquid scintillation in a Packard Topcount scintillation counter. […]

Experiment [2] has as its target T2, human 5-HT6 (h5-HT6) receptors (Homo sapiens, UniProt P50406).
T2 construct: purchased Receptor Biology, Inc. (Beltsville, Md.); host or cells: HEK-293 cells
Briefly: Competition radioligand binding, h5-HT6. The note with it: [3H]LSD; membranes of HEK-293 cells; read-out: Ki 5-HT6.

Experiment [3] deals with T3, human D2S dopamine (hD2S-DA) receptors (Homo sapiens, UniProt P14416).
T3 construct: purchased Receptor Biology, Inc. (Beltsville, Md.); host or cells: A9 L cells
T3 sequence (P14416 1-414 isoform P14416-2): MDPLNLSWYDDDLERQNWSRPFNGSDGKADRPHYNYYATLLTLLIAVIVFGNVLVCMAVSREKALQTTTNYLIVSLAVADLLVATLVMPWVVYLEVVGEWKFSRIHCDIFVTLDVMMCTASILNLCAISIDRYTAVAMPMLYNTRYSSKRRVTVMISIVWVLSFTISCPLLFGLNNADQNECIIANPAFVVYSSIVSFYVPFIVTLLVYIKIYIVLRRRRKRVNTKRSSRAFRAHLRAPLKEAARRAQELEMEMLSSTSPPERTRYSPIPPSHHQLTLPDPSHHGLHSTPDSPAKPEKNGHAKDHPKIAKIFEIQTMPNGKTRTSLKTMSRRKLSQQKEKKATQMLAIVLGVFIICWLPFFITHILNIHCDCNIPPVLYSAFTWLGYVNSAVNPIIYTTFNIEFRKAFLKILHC
Description: Competition radioligand binding, hD2S dopamine. The note with it: [3H]Spiperone; membranes of A9 L cells; read-out: Ki D2.

T2 sequence (P50406 whole entry): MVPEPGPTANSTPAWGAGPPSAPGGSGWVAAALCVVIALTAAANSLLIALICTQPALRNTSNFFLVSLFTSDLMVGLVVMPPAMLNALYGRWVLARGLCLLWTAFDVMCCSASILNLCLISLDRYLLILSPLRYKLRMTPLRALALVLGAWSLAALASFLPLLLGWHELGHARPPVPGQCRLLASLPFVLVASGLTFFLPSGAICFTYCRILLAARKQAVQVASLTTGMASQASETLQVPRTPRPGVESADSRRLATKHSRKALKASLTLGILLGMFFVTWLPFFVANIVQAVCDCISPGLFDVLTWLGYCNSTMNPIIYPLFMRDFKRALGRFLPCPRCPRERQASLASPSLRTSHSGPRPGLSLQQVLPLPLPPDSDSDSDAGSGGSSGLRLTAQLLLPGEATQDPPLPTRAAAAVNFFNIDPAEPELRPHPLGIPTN
T1 sequence (P34969 1-432 limits assumed): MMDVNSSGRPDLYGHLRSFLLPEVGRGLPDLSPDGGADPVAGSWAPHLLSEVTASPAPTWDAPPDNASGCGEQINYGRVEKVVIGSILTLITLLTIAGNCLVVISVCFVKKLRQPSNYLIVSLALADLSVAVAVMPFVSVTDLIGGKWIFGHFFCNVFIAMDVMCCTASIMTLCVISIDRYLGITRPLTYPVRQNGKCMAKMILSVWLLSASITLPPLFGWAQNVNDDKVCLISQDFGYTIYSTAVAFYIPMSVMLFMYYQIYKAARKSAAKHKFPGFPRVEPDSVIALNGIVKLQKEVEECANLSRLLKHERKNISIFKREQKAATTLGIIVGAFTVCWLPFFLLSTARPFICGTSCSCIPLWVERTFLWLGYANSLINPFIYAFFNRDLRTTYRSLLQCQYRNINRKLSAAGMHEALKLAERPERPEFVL

As for `CNC(=O)/N=C(/NCc1cccc2ccccc12)NC(=O)NC` [Example 52, N-Methyl-N′-{(Z)-{[(methylamino)carbonyl]amino}[(1-naphthylmethyl)amino]methylidene}urea], the Ki in experiment [1] was determined as 1010 nM.

In the case of `N=C(NCc1cccc2ccccc12)NC(=O)NCCCn1ccnc1` [Example 11], the figures for the Ki in experiment [2], in experiment [1] and in experiment [3] were 910 nM, 25 nM and 920 nM, respectively.

For `COc1ccccc1N1CCN(C(=O)NC(=N)N[C@H](C)c2cccc3ccccc23)CC1` [Example 83, N-{[4-(2-Methoxyphenyl)-1-piperazinyl]carbonyl}-N′-[(1R)-1-(1-naphthyl)ethyl]guanidine], the Ki in experiment [1] is 750 nM.

Regarding `N=C(NC(=O)NCc1cccc(Cl)c1Cl)NC1CCCCC1O` (stereo not drawn) [Example 9, 1,2-Dichloro-3-{[({[[(2-hydroxycyclohexyl)amino](imino)methyl]amino}carbonyl)amino]methyl}benzene], in experiment [1], the Ki is 320 nM.

Regarding `N=C(NCc1cccc2ccccc12)NC(=O)NCCc1ccc(N)cc1` [Example 33, 1-({[({[(4-Amninophenethyl)amino]carbonyl}amino)(imino)methyl]amino}methyl) naphthalene], the Ki stood at 1240 nM in experiment [2], 48 nM in experiment [1] and 900 nM in experiment [3].

For the compound `Cc1ccccc1CNC(=O)NC(=N)NCCc1ccccn1` [Example 10, 2-(2-{[Imino([{(2-methylbenzyl)amino]carbonyl}amino)methyl]amino}ethyl)pyridine], the Ki was 250 nM in experiment [1] and over 2500 nM in experiment [3].

Consider `COc1cc(CNC(=O)NC(=N)NCc2cccc3ccccc23)cc(OC)c1OC` [Example 49, 1-({[Imino({[(3,4,5-trimethoxybenzyl)amino]carbonyl}amino)methyl]amino}methyl)naphthalene], for which the Ki in experiment [2] is 1130 nM; in experiment [1] it was 30 nM; in experiment [3] it was 830 nM.

For the compound `CN1CCCC1CCNC(=O)NC(=N)NCc1cccc2ccccc12` (stereo not drawn) [Example 13], the values for the Ki in experiment [2], in experiment [1] and in experiment [3] were 3050 nM, 32 nM and 1910 nM, respectively.

In the case of `N=C(NCc1cccc2ccccc12)NC(=O)NCCc1ccc(O)cc1` [Example 31, 1-({[({[(4-Hydroxyphenethyl)amino]carbonyl}amino)(imino)methyl]amino}methyl) naphthalene], in experiment [1], the Ki is 19 nM.

On to `CC(=O)NCCNC(=O)NC(=N)NCc1cccc2ccccc12` [Example 26, N-(2-{[({Imino[(1-naphthylmethyl)amino]methyl}amino)carbonyl]amino}ethyl)acetamide], for which the Ki in experiment [2] is 1450 nM; in experiment [1] it was 10 nM; in experiment [3], over 2500 nM.

As for `N=C(NCc1cccc2ccccc12)NC(=O)NCc1ccc(F)cc1` [Example 32, 1-({[({[(4-Fluorobenzyl)amino]carbonyl}amino)(imino)methyl]amino}methyl)naphthalene], the results for the Ki in experiment [2], in experiment [1] and in experiment [3] were 1300 nM, 24 nM and 780 nM, respectively.

On to `N=C(NCc1cccc2ccccc12)NC(=O)Nc1cccc(C(N)=O)c1` [Example 27, 3-{[({Imino[(1-naphthylmethyl)amino]methyl}amino)carbonyl]amino}benzamide], for which the Ki is 79 nM in experiment [2], 18 nM in experiment [1] and over 2500 nM in experiment [3].

Take `N=C(NCc1cccc2ccccc12)NC(=O)NC1CCCCC1O` (stereo not drawn) [Example 14, 1-({[({[(2-Hydroxycyclohexyl)amino]carbonyl}amino)(imino)methyl]amino}methyl)naphthalene]: the Ki in experiment [2] worked out at 1250 nM; in experiment [1], 11 nM; in experiment [3] it was 460 nM.

In the case of `COc1ccc(CNC(=O)NC(=N)NCc2cccc3ccccc23)cc1` [Example 28, 1-({[Imino({[(4-methoxybenzyl)amino]carbonyl}amino)methyl]amino}methyl)naphthalene], the Ki in experiment [2] came to 3400 nM; in experiment [1] it was 43 nM; in experiment [3], 500 nM.

Regarding `N=C(NCc1cccc2ccccc12)NC(=O)N1CCNCC1` [Example 37, N-(1-Naphthylmethyl)-N′-(1-piperazinylcarbonyl)guanidine], the Ki in experiment [1] is 930 nM.

In the case of `COc1ccc(CNC(=N)NC(C)=O)c2ccccc12` [Example 88, N-Acetyl-N′-[(4-methoxy-1-naphthyl)methyl]guanidine], the Ki in experiment [1] came to 1230 nM.

For the compound `CC(C)(CO)CNC(=O)NC(=N)NCc1cccc2ccccc12` [Example 48, 1-({[({[(3-Hydroxy-2,2-dimethylpropyl)amino]carbonyl}amino)(imino)methyl]amino}methyl)naphthalene], the Ki in experiment [2] was determined as 2620 nM; in experiment [1], 9.8 nM; in experiment [3] it was 1700 nM.

Take `N=C(NCc1cccc2ccccc12)NC(=O)NC1CC1` [Example 34, 1-({[{[(Cyclopropylamino)carbonyl]amino}(imino)methyl]amino}methyl)naphthalene]: the Ki in experiment [2] is 7750 nM; in experiment [1], 13 nM; in experiment [3], 1790 nM.

Consider `COc1ccccc1N1CCN(C(=O)NC(=N)N[C@H](C)c2ccc3ccccc3c2)CC1` [Example 82, N-{[4-(2-Methoxyphenyl)-1-piperazinyl]carbonyl}-N′-[(1R)-1-(2-naphthyl)ethyl]guanidine], for which the Ki in experiment [1] came to 1080 nM.

As for `O=C(Nc1nc2ccccc2[nH]1)Nc1cc(F)ccc1F` [Example 89], the Ki in experiment [1] was determined as 2700 nM.

For `CC(O)CNC(=O)NC(=N)NCc1cccc2ccccc12` (stereo not drawn) [Example 30, 1({[({[(2-Hydroxypropyl)amino]carbonyl}amino)(imino)methyl]amino}methyl) naphthalene], the Ki in experiment [2] was found to be 1510 nM; in experiment [1], 13 nM; in experiment [3], 1580 nM.

As to `N=C(NCc1cccc2ccccc12)NC(=O)NCc1cccs1` [Example 20, 2-({[({Imino[(1-naphthylmethyl)amino]methyl}amino)carbonyl]amino}methyl)thiophene], the values for the Ki in experiment [2], in experiment [1] and in experiment [3] were 1360 nM, 16 nM and 540 nM, respectively.

As to `N=C(NCc1cccc2ccccc12)NC(=O)NCC1CCNCC1` [Example 2, 4-({[({Imino[(1-naphthylmethyl)amino]methyl}amino)carbonyl]amino}methyl)piperidine], the results for the Ki in experiment [2], in experiment [1] and in experiment [3] were 3200 nM, 46 nM and over 2500 nM, respectively.

In the case of `N=C(NCc1cccc2ccccc12)NC(=O)N1CCCC(C(N)=O)C1` (stereo not drawn) [Example 12, 1-[({Imino[(1-naphthylmethyl)amino]methyl}amino)carbonyl]-3-piperidine carboxamide], in experiment [1], the Ki amounted to 180 nM.

For `N=C(NCc1cccc2ccccc12)NC(=O)NCCc1c[nH]c2ccc(Cl)cc12` [Example 39, 5-Chloro-3-(2-{[({imino[(1-naphthylmethyl)amino]methyl}amino)carbonyl]amino}ethyl)-1H-indole], the Ki in experiment [2] is 1180 nM; in experiment [1], 120 nM; in experiment [3], 400 nM.

As for `COC(=O)NC(=N)NCc1cccc2ccccc12` [Example 4, Methylimino[(1-naphthylmethyl)amino]methylcarbamate], the inhibitory constant (Ki) in experiment [1] came to 820 nM.

Values taken from patent US20040044037A1, “Amidino-urea serotonin receptor ligands and compositions, their pharmaceutical uses, and methods for their snythesis” (priority 2003, published 2004).
